Data taken from US9468669B2, “Methods to treat dysregulated blood glucose disorders” (REGENTS OF THE UNIVERSITY OF MINNESOTA, priority 2013, dated 2016).

Key:
blood glucose [1] = test: Acute D-serine injection, fasted blood glucose by glucometer; format: in vivo, mice of the ddY strain; conditions: 2.7 g/kg i.p., 6 h fasted
Experimental: Mice were fasted for 4-6 hours. The tails were wiped with ethanol and allowed to dry. For a first time test, the tip of the tail was removed with a scissors. For subsequent tests, a needle was used to puncture the tail vein. The first drop of blood was wiped away and then the second drop was placed on a glucometer test strip. A second test was administered immediately and most scores were an average of the two readings. If there was more than a 100 unit discrepancy between the two readings, a third reading was taken and the reported value was an average of the three.
Four adult male mice of the ddY strain were fasted for 6 hours before testing. A blood glucose reading from each mouse was determined at the start (time 0). The mice were weighed and the average weight was used with an injection volume of 0.3 mL to calculate the concentration of D-serine to dissolve into saline. The dose, 2.7 g/kg, was picked based on previously published behavior studies in which the intraperitoneal dose was the most reliable in inducing a mouse behavior response during pre-pulse startle inhibition (Kanahara, N., et al., (2008), Psychopharmacology, 198, 363-374) and acute ethanol sedation (Lockridge, A., et al., (2012), Alcohol, 46:389-400). After time 0 testing, each mouse received either D-serine or saline (alternating by cage) at 5 minute intervals. Blood glucose readings were taken at 15, 30, 60 and 120 minutes after each mouse's initial injection. The data presented is the average blood glucose (mg/dL), determined by glucometer as previously described (FIG. 1). Each data point is the average of the two mice with the same treatment condition, while the standard error bars indicate the degree of individual variability between subjects. The saline injected control mice (black) maintained a steady glucose level (70-80% of baseline) throughout the testing period.

blood glucose [2] = test: Chronic D-serine drinking, fasted blood glucose, body weight and consumption; format: in vivo, mice of the C57 strain
Experimental: Mice were fasted for 4-6 hours. The tails were wiped with ethanol and allowed to dry. For a first time test, the tip of the tail was removed with a scissors. For subsequent tests, a needle was used to puncture the tail vein. The first drop of blood was wiped away and then the second drop was placed on a glucometer test strip. A second test was administered immediately and most scores were an average of the two readings. If there was more than a 100 unit discrepancy between the two readings, a third reading was taken and the reported value was an average of the three. Eight adult male mice of the C57 strain were tested in a chronic administration model. Mice were housed 2 per cage, with each cage outfitted with 2 special drinking tubes (50 mL conical+stopper with sipper tube) to minimize the impact of any problems with a single tube. Two cages of mice drank tap water and two cages of mice drank a D-serine solution (12.6 mg/ml in tap water), with solutions replaced every other day. Every other day, the food and drinking bottles were weighed to determine cage-wide consumptive behaviors and the mice were individually weighed. At specified intervals, mice were also tested for core body temperature by rectal probe and for 4-hours fasted blood glucose. All mice started with a week of water drinking. […] After one week, two cages (4 mice) were switched to D-serine solution. […] After this measure, all mice were again switched back to water. […] Both acute weight loss and increased drinking are prominent symptoms of the onset of diabetes.

[3] = Plasma D-serine after acute i.p. administration (capillary electrophoresis); format: in vivo, mice; conditions: 2.7 g/kg i.p., 35 and 55 minutes after injection; ethanol 3 g/kg i.p. 15 min after D-serine
Experimental: The data from FIG. 3 serves as an example of a concentration reference value subject to the time frame and administration technique of the acute hypoglycemia experiments described in FIG. 1. A 20 uL blood sample was collected from the facial vein of mice prior to any treatment (time 0) and 20 and 40 minute intervals after an i.p. injection of ethanol (3 g/kg). A pre-treatment injection of saline (n=9) or D-serine (2.7 g/kg, i.p., n=9) was administered 15 minutes before ethanol such that the reported values also correspond to time 35 and 55 minutes after the pre-injection. These blood samples were assayed for D-serine using capillary electrophoresis, as described in the publication (Lockridge, 2012). Basal levels of plasma D-serine were ˜20 uM with post-injection values rising into the […].

[4] = Plasma D-serine during chronic, sustained drinking (capillary electrophoresis); format: in vivo, mice; conditions: 12.6 mg/mL drinking solution
Excerpt: The data from FIG. 4 were generated from an unpublished study of the impacts of D-serine on ethanol drinking. […] Blood was collected from the facial vein and assayed via capillary electrophoresis as described above after mice (n=2-4 per condition as shown in the x-axis) had been presented with a choice of water vs. D-serine (or ethanol) drinking solution for 2 weeks and then 2 weeks of exclusively drinking treated solution according to their indicated treatment category.

[5] = Core body temperature by rectal probe during chronic D-serine drinking; format: in vivo, mice; conditions: throughout the chronic D-serine drinking experiment
Experimental: Eight adult male mice of the C57 strain were tested in a chronic administration model. Mice were housed 2 per cage, with each cage outfitted with 2 special drinking tubes (50 mL conical+stopper with sipper tube) to minimize the impact of any problems with a single tube. Two cages of mice drank tap water and two cages of mice drank a D-serine solution (12.6 mg/ml in tap water), with solutions replaced every other day. Every other day, the food and drinking bottles were weighed to determine cage-wide consumptive behaviors and the mice were individually weighed. At specified intervals, mice were also tested for core body temperature by rectal probe and for 4-hours fasted blood glucose. All mice started with a week of water drinking. […] After one week, two cages (4 mice) were switched to D-serine solution. […] After this measure, all mice were again switched back to water. […] Both acute weight loss and increased drinking are prominent symptoms of the onset of diabetes.
The hypothalamus is known to regulate metabolism through its influence on circadian rhythm, hunger, thirst, body temperature and glucose utilization among others. […] Core body temperature, determined by rectal thermometer, was stable throughout the chronic D-serine drinking experiment (FIG. 8A) and between wildtype and DAO mutant mice (FIG. 8B).

human islets [6] = test: Glucose stimulated insulin release (GSIR); format: cell-based; conditions: 100 uM, glucose series
Experimental: Living islets were isolated from the pancreas of a consenting organ donor via enzymatic digestion and isopycnic density gradient purification as previously described (Balamurugan, A N., et al., (2014) The Islets of Langerhans, 2nd Edition, 1-25). This isolation was performed as a standard procedure by an experienced team at the Schulze Diabetes Institute of the University of Minnesota under GMP conditions. A portion of the total number of isolated islets were granted for these experiments after quality control testing and quantification. Islets were maintained in culture in supplemented Prodo media with a 5.5 mM glucose concentration in a T-flask at 37° C., 5% CO2. […]
After washing to remove culture media, approximate aliquots of 30 islet equivalents (IEQ, islet numbers normalized to an average size of 150 microns) were added to cell strainers immersed in 1.0 mL of 0-glucose solution. […] All well contents, both time 0 and post-stimulation samples, were stored at −80° C. until they could be assessed for insulin content via sandwich ELISA from a standard commercial mouse insulin ELISA kit. Insulin content, post-stimulation concentration minus the time 0 concentration, was normalized to the actual IEQ of each well, which was determined by Pico-green DNA assessment (Papas, K. K., et al., (2007), Am J Transplant 7, 707-13) of cell strainer contents recovered at the end of the final incubation. […]

human islets [7] = test: Human islet viability (acridine orange / propidium iodide staining); format: cell-based; conditions: for islet viability: 100 uM
Experimental: (§1) Living islets were isolated from the pancreas of a consenting organ donor via enzymatic digestion and isopycnic density gradient purification as previously described (Balamurugan, A N., et al., (2014) The Islets of Langerhans, 2nd Edition, 1-25). This isolation was performed as a standard procedure by an experienced team at the Schulze Diabetes Institute of the University of Minnesota under GMP conditions. A portion of the total number of isolated islets were granted for these experiments after quality control testing and quantification. Islets were maintained in culture in supplemented Prodo media with a 5.5 mM glucose concentration in a T-flask at 37° C., 5% CO2. Half-volume media changes were performed every 3′^d day.
After conditional incubations (described below), islets were placed in standard media for 2-8 hrs before viability assessment. The viability of islets was assessed by double staining an aliquot of ˜25 islets with acridine orange (stains living cells) and propidium iodide (stains necrotic or apoptotic cells) (Bank, H. L., (1988) In Vitro Cell Dev Biol 24, 266-73). Each islet in the sample was evaluated under a fluorescent microscope and assigned a value for the % of live cells present and those numbers averaged for that sample. 3× samples per condition were assayed each day for 3 consecutive days and on one day in a follow-up experiment 1 week later. Prior to staining, aliquots were incubated for 60 minutes (FIG. 12, n=2 days) or 90 minutes (FIG. 13, n=2 days) in each solution type used in the GSIR incubations in addition to 100 uM concentrations of D-serine, NMDA or D-serine+NMDA alone (i.e. in 0 glucose). […] On the 3rd day and in a subsequent follow-up experiment, islets were incubated for 90 minutes in the same solutions. In this case, viability was decreased only under those conditions with both the maximum glucose concentration (28 mM) and the addition of NMDA and/or D-serine with the most dramatic loss of viable islet cells (down to 81.1±1.1%) observed in the 28 mM glucose+100 uM NMDA+100 uM D-serine condition (FIG. 13).

human islets [8] = test: Sustained high concentration D-serine on human islet survival (1 week culture); format: cell-based; conditions: 100 uM NMDA and 500 uM D-serine
Experimental: as §1
After conditional incubations (described below), islets were placed in standard media for 2-8 hrs before viability assessment. The viability of islets was assessed by double staining an aliquot of ˜25 islets with acridine orange (stains living cells) and propidium iodide (stains necrotic or apoptotic cells) (Bank, H. L., (1988) In Vitro Cell Dev Biol 24, 266-73). Each islet in the sample was evaluated under a fluorescent microscope and assigned a value for the % of live cells present and those numbers averaged for that sample. 3× samples per condition were assayed each day for 3 consecutive days and on one day in a follow-up experiment 1 week later. […]

[9] = 12.6 mg/ml in drinking water, first week of treatment

plasma D-serine, post-injection [3] [mM]	plasma level relative to human patients undergoing D-serine oral therapy ([4]; versus clinical trials (Emilov 2013))	concentration at 4 weeks ([4]; mouse, plasma, oral, 2 weeks choice then 2 weeks exclusive drinking, read-out: basal D-serine plasma level) [µM]	core body temperature [5]	SMILES	blood sugar (blood glucose [1]; 15 and 30 minutes after injection)	blood sugar, % of baseline (blood glucose [1]; 60 minutes after injection)	blood sugar, % of baseline (blood glucose [1]; 120 minutes after injection)	solution drinking (blood glucose [2]; 12.6 mg/ml in drinking water)	blood sugar (blood glucose [2]; 12.6 mg/ml in drinking water, 16 days of drinking, 4-hours fasted) [mg/dL]	blood sugar (blood glucose [2]; 12.6 mg/ml in drinking water, after 7 days of drinking, 4-hours fasted) [mg/dL]	body weight (blood glucose [2]; [9])	eating (blood glucose [2]; [9])	blood glucose (blood glucose [2]; 12.6 mg/ml in drinking water, two days after the switch, 4-hours fasted)	blood glucose after switch back to water (blood glucose [2]; after a week of water drinking following 16 days of D-serine)	effect on insulin secretion, supplement alone (human islets [6])	islet viability (human islets [7]; human, 60 min) [%]	average viability, % viable cells per islet (human islets [8]) [%]	islets recovered, average pool IEQ (human islets [8]; Pico-green DNA assay) [IEQ]	islet viability (human islets [7]; 60 minutes incubation, all GSIR solution types and 0 glucose) [%]	islet viability (viable islet cells) (human islets [7]; 90 minutes incubation, 28 mM glucose, 100 uM supplement)
~12	2-3 times higher	400 to 600	stable	N[C@H](CO)C(=O)O [D-serine]	stable	52 % of baseline	36 % of baseline	increased	170 ± 9	149 ± 12	weight loss	reduced eating	still at baseline levels	recovered back to baseline glucose levels	no effect	~100	84±2.4	1137±172		
				CN[C@H](CC(=O)O)C(=O)O [NMDA, N-methyl-D-aspartate]											no effect on 2 out of 3 days tested				~100	decreased
